Test results: ChEMBL document CHEMBL1201862, “PubChem BioAssay data set” (2004)
Calls of active or inactive are those of the source.

Key:
[1] = molecular target: DNA dC->dU-editing enzyme APOBEC-3A (Homo sapiens, UniProt P31941); test: Dose Response confirmation of small molecule APOBEC3A DNA Deaminase Inhibitors via a fluorescence-based single-stranded DNA deaminase assay. [Related pubchem assays (depositor defined):AID493011, AID493024]; format: functional
[2] = molecular target: T1, Carboxy-terminal domain RNA polymerase II polypeptide A small phosphatase 1 (Homo sapiens, UniProt Q9GZU7); test: CTDSP1 inhibitors, concentration-response, biochemical, absorbance readout, ultra-high-throughput screen actives (AID 540297); format: functional
T1 sequence (Q9GZU7 whole entry): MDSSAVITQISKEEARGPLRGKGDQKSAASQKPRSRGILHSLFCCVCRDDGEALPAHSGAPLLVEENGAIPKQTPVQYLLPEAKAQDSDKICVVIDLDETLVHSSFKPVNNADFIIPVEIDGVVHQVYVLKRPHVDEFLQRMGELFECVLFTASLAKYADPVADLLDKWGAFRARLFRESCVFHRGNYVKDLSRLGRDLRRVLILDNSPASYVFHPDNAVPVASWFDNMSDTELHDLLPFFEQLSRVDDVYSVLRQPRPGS

[3] = molecular target: DNA dC->dU-editing enzyme APOBEC-3G (Homo sapiens, UniProt Q9HC16); format: functional;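 note: Dose-response counterscreen measuring inhibition of APOBEC3G DNA deaminase activity, run while confirming APOBEC3A inhibitors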
[4] = molecular target: Eukaryotic translation initiation factor 4E (Mus musculus, UniProt P63073); test: blockers of eIF4G binding by eIF4E – biochemical, TR-FRET, dose response (AID 855); format: functional;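 note: potency for disrupting eIF4E binding to eIF4GI seen as loss of FRET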
Leucine aminopeptidase = molecular target: T2, Leucine aminopeptidase (Plasmodium falciparum 3D7, UniProt Q8IL11); test: P. falciparum M17LAP inhibitors, primary screen, biochemical, fluorogenic H-Leu-NHMec substrate, 1536-well (AID 1619); format: functional
T2 sequence (Q8IL11 whole entry): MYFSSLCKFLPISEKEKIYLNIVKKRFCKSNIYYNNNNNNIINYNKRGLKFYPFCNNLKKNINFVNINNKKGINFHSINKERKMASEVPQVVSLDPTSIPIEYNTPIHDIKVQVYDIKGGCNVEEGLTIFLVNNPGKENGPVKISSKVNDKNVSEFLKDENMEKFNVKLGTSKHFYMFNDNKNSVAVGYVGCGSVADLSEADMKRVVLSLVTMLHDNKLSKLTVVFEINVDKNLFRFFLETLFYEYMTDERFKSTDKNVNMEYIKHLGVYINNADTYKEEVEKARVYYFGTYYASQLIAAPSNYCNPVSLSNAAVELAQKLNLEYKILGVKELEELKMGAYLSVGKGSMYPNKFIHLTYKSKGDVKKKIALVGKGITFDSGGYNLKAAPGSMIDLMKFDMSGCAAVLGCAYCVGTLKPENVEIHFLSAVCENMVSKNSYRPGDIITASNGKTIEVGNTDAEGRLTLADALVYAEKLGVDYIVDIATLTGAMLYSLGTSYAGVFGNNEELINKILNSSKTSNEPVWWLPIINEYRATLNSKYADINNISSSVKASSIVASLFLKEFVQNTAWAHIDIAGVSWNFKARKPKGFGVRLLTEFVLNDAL

[5] = off-target signal loss in HeLa-CEM21 co-culture – HeLa F-luc CTL cells, cherry-picked, counter-screen for HIV-1 Env fusion inhibitor project, dose response (AID 652040); format: functional, cell-based;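 note: potency for signal decrease marking cytotoxic or nonspecific inhibition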
[6] = blockers of HIV-1 ZM109 envelope-driven cell-cell fusion – HeLa effector, CEM target cells, luciferase, cherry-pick, dose response (AID 652058); format: functional, cell-based;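 note: luciferase signal from HIV-1 Env mediated cell-cell fusion of effector and target cells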
[7] = HIV-1 AD8 envelope cell-cell fusion blockers – cherry-pick, dose response (AID 652062); format: functional, cell-based;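 note: luciferase signal from cell-cell fusion driven by HIV-1 clade B AD8 Env; potency is for inhibitors of fusion seen as a drop in luminescence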
[8] = blockers of HIV-1 envelope-mediated cell-cell fusion – cherry-pick, dose response (AID 652057); format: functional, cell-based
HEK293 [9] = test: cells; format: functional, cell-based; conditions: Homo sapiens
[10] = loss of viability in HepG2 cells – cell-based, CellTiter-Glo, cherry-picked, cytotoxicity control for Shn3 inhibitor project, dose response (AID 624134); format: functional
HEK293 [11] = test: cells; format: functional, cell-based; conditions: Homo sapiens; remark: listed apart in the source
HEK293 [12] = test: NOD2 signaling inhibitors in MDP-stimulated cells, cell-based, uHTS, luminescence (AID 2001); format: functional; conditions: Homo sapiens
[13] = non-specific 3'UTR reporter inhibition in Clone20-Shn3RL – cell-based, Renilla luciferase, cherry-picked, counter-screen for Shn3 inhibitor project, dose response (AID 624133); format: functional
HEK293 [14] = test: inhibition of NOD1-driven NF-kB reporter – cell-based, luminescence, uHTS, primary screen (AID 1578); format: functional; conditions: Homo sapiens
[15] = reduction of Shn3 3'UTR-driven luciferase in osteoblasts – cell-based, Clone20 osteoblasts, firefly luciferase, cherry-picked, dose response (AID 624132); format: functional;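 note: firefly luciferase luminescence from reporter carrying the Shn3 3'UTR in osteoblasts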
Cytochrome P450 3A4 = Cytochrome P450 3A4 (Homo sapiens, UniProt P08684); conditions: Potency;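 note: confirmatory qHTS run detecting inhibitors and substrates of CYP3A4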
[16] = molecular target: Glyceraldehyde-3-phosphate dehydrogenase (Homo sapiens, UniProt P04406)
Streptokinase A = molecular target: T3, Streptokinase A (Streptococcus pyogenes serotype M1, UniProt P10520); test: viability-normalized secreted streptokinase activity reduction – plasminogen activation absorbance, OD405, dose response (AID 1914); format: functional, Streptococcus pyogenes M1 GAS;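 note: secreted streptokinase activity via plasminogen activation per viability signal from cell pellet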
T3 sequence (P10520 whole entry): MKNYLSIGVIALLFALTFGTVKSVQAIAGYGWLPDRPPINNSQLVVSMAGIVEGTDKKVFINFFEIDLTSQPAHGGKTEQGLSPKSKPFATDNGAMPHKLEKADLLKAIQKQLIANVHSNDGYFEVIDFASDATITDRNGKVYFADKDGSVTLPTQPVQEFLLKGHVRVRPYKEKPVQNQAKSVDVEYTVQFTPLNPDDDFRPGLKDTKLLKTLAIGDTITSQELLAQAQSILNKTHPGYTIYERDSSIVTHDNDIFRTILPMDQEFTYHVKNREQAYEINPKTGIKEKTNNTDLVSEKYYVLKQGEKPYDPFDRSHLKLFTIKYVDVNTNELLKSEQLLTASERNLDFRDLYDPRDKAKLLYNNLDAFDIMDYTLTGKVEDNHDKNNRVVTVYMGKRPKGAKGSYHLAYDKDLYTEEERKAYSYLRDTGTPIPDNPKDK

Streptococcus = test: GAS UMAA2166 growth inhibition – luminescence, BacTiterGlo, counter-screen for streptokinase expression inhibitor project, dose response (AID 1915); format: functional, organism-based;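 note: potency for reduction of bacterial viability or growth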
[17] = test system: Streptococcus sp. 'group A'; test: Streptococcus pyogenes SK(-)GAS viability under kanamycin – luminescence, BacTiterGlo, confirmation, counter-screen for streptokinase expression inhibitor project, dose response (AID 1900); format: functional, organism-based
Fatty acid synthase [18] = molecular target: T4, Fatty acid synthase (Homo sapiens, UniProt P49327); test: inhibition of human FAS-TE enzyme activity – biochemical, kinetic fluorescence intensity, dose response (AID 624326); format: functional;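 note: rate of fluorescence rise from hydrolysis of a fluorogenic O-methyl fluorescein ester substrate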
Fatty acid synthase [19] = molecular target: T4, Fatty acid synthase; test: inhibition of human FAS-TE enzyme activity – biochemical, endpoint fluorescence intensity, uHTS hits, dose response (AID 624327); format: functional;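 note: fluorescence from hydrolysis of an O-methyl fluorescein acyl ester substrate by the enzyme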
[20] = microbe, parasite or virus in culture; format: functional; conditions: Mycobacterium tuberculosis
[21] = molecular target: T5, Calpain-2 catalytic subunit (Sus scrofa, UniProt P43367); test: m-calpain protease blockers, concentration series – biochemical, fluorogenic peptide substrate, dose response (AID 1420); format: functional
T5 sequence (P43367 whole entry): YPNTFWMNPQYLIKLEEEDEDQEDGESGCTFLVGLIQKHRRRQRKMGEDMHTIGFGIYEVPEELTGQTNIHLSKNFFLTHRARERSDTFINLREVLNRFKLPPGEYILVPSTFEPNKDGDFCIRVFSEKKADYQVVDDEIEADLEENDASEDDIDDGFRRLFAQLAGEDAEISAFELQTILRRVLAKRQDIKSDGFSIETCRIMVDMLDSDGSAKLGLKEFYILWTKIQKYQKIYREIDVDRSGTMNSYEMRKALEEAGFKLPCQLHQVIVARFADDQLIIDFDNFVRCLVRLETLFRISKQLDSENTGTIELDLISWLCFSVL

[22] = blockers of bursicon-stimulated LGR2 cAMP reporter – cell-based, HEK293, CRE-luciferase reporter, cherry pick, set 2, dose response (AID 743343); format: functional;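 note: transfected cells were stimulated with diluted bursicon conditioned medium after compound addition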
[23] = blockade of melanocortin 4 receptor signaling – cell-based, plate reader, cherry pick, counter-screen for LGR2 antagonist project, dose response (AID 743444); format: functional;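 note: transfected HEK 293 cells stimulated with alpha-MSH peptide; potency of inhibitors of the alpha-MSH evoked signal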
[24] = viability loss in HEK293 cells – cell-based, plate reader, cherry-picked samples, cytotoxicity control, dose response (AID 743446); format: functional
[25] = A549 cell cytotoxicity, dose response, cytotoxicity control, plate reader, cherry-pick, antagonist series (AID 743412); format: functional, cell-based

Sequence of Cytochrome P450 3A4 (P08684 whole entry): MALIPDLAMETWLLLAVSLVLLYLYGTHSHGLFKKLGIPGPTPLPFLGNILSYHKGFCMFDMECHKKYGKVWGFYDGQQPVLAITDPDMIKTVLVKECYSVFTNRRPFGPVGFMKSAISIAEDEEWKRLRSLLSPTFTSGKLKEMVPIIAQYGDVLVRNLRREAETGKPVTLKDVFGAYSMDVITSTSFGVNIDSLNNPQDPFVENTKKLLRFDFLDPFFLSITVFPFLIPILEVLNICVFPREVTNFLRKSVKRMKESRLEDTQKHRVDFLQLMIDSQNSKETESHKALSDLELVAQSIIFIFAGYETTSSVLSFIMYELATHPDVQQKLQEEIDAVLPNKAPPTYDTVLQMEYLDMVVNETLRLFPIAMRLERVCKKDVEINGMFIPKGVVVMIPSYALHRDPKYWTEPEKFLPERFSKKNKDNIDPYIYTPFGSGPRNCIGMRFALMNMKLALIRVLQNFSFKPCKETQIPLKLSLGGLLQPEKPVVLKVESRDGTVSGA
Sequence of Eukaryotic translation initiation factor 4E (P63073 whole entry): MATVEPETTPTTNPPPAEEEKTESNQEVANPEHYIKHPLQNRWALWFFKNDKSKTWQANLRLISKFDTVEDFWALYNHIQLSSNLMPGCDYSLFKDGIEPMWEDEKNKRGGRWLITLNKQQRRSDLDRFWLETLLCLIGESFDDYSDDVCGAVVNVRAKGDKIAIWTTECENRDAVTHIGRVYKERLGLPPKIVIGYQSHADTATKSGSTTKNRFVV
Sequence of Glyceraldehyde-3-phosphate dehydrogenase (P04406 whole entry): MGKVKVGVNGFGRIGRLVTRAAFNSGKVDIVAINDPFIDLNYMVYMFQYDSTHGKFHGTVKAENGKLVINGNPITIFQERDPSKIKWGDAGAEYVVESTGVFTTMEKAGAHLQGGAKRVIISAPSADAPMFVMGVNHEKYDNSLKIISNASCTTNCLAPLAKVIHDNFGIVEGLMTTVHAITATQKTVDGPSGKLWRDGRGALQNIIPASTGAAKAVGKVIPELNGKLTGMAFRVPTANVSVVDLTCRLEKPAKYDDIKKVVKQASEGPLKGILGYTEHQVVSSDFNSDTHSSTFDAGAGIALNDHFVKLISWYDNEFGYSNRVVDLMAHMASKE
Sequence of DNA dC->dU-editing enzyme APOBEC-3G (Q9HC16 whole entry): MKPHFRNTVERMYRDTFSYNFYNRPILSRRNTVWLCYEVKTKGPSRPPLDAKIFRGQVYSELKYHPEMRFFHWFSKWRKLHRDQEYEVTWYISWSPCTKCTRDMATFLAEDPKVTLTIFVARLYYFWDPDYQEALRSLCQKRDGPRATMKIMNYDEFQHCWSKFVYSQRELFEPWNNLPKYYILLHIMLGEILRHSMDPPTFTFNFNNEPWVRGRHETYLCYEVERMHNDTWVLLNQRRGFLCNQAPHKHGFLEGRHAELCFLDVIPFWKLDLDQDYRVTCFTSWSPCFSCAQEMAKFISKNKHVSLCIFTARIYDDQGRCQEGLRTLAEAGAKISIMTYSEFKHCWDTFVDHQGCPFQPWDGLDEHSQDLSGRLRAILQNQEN
Sequence of DNA dC->dU-editing enzyme APOBEC-3A (P31941 whole entry, the tested form may be a part): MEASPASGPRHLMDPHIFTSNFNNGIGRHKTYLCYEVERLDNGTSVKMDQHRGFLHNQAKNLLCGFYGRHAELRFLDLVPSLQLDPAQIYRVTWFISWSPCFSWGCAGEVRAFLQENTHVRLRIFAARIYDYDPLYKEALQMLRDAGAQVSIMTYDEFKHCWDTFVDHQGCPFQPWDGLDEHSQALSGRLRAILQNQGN
T4 sequence (P49327 whole entry): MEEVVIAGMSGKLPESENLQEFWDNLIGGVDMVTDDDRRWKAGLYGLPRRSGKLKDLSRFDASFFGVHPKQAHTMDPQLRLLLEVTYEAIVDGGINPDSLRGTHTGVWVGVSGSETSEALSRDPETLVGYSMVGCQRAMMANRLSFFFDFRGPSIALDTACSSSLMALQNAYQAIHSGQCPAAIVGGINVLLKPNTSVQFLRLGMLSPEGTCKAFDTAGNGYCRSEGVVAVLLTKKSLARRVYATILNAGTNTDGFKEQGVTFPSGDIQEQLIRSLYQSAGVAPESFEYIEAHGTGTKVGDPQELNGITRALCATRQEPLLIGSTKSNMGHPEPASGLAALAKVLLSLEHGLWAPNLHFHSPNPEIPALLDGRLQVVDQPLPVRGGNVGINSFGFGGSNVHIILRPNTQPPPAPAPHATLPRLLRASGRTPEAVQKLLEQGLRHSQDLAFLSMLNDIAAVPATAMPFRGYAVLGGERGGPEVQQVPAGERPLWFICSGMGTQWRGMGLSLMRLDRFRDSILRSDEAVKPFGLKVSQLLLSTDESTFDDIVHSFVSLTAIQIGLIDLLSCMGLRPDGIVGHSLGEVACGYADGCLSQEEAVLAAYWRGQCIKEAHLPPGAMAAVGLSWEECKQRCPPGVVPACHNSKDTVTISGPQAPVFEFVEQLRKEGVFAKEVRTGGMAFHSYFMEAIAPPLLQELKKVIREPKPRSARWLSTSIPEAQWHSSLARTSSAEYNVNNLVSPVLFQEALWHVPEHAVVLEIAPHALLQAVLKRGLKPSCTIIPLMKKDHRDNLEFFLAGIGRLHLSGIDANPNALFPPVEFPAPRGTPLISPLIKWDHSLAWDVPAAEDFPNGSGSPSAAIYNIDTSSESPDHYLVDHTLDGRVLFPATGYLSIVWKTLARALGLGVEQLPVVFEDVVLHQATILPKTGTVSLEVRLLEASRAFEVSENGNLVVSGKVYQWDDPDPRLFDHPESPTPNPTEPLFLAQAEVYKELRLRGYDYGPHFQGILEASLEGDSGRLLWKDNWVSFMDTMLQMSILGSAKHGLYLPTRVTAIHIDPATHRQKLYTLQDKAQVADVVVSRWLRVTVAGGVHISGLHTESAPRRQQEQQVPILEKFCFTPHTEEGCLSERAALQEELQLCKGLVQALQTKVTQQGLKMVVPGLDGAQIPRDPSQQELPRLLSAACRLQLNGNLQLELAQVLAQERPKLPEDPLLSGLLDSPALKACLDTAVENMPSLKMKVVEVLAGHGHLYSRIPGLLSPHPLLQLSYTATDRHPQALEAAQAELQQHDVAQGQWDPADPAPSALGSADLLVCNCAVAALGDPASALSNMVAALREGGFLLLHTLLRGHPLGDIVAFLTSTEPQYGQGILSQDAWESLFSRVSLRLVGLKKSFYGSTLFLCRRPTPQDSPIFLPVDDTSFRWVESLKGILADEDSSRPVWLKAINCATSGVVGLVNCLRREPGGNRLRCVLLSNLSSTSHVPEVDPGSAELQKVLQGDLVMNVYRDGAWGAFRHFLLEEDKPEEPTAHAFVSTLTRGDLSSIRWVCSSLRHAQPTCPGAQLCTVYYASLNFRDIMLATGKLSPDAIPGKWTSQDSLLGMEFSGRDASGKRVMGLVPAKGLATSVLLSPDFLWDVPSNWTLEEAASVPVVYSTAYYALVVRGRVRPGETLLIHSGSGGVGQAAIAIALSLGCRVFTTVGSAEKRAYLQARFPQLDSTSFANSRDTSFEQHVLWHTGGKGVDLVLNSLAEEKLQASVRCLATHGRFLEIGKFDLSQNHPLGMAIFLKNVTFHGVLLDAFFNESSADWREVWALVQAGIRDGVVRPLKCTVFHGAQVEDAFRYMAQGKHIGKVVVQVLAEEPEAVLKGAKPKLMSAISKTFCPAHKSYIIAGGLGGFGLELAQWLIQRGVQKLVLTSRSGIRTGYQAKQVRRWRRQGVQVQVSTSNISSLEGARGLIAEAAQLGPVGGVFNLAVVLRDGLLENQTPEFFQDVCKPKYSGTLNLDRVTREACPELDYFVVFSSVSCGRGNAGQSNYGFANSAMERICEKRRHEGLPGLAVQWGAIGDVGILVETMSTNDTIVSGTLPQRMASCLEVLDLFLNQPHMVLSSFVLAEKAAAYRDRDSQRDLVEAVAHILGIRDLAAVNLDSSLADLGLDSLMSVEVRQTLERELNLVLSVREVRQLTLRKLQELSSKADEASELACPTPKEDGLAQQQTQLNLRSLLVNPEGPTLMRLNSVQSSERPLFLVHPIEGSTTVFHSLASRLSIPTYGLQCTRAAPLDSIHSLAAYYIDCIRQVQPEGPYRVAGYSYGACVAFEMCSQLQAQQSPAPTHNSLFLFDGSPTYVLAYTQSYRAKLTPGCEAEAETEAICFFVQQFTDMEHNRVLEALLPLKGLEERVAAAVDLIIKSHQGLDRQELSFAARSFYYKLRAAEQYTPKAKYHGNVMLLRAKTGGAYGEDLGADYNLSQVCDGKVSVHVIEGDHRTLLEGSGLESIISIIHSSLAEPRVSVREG

SMILES: O=C(COC(=O)/C=C/c1ccco1)Nc1ncc(C(F)(F)F)cc1Cl
- IC50 [1]: 16.9 µM (active)
- IC50 [2]: 4.77 µM (active)
- IC50 [3]: 29.9 µM (active)

SMILES: Cc1ccc(S(=O)(=O)N(CC(=O)O)Cc2ccco2)cc1
- IC50 [1]: 16 µM (active)
- IC50 [3]: 28.4 µM (active)

SMILES: CCc1ccc(C(=O)CSc2nnc[nH]2)cc1
- IC50 [4]: > 64 µM (inactive)
- IC50 (Leucine aminopeptidase): 16.7 µM (active)

SMILES: COc1ccc(/C=C(\NC(=O)c2ccccc2)C(=O)OC[C@@H]2CCC[N+]3(C)CCCCC23)cc1OC (stereo partly drawn)
- IC50 [1]: 2.2 µM (active)
- IC50 [2]: 6.62 µM (active)
- IC50 [3]: 3.58 µM (active)

SMILES: COc1cc(NC2c3ccccc3C(=O)N2Cc2ccc3c(c2)OCO3)cc(OC)c1OC (stereo not drawn)
- AC50 [5]: 14.7 µM (active)
- AC50 [6]: 5.79 µM (active)
- AC50 [7]: 10.1 µM (active)
- AC50 [8]: 6.77 µM (active)

SMILES: CCCOC(=O)c1[nH]c2c(c1C)C(=O)CC(c1cc(OC)c(OC)c(OC)c1)C2 (stereo not drawn)
- IC50 (HEK293 [9]): 16.4 µM (active)
- AC50 [10]: 52.9 µM (active)
- IC50 (HEK293 [11]): 6.21 µM (active)
- IC50 (HEK293 [12]): 4.9 µM (active)
- AC50 [13]: 6.82 µM (active)
- EC50 (HEK293 [14]): 2.78 µM (active)
- AC50 [15]: 1.92 µM (active)

SMILES: CCCn1c(-c2ccc(F)cc2)nc2c(NCCCCN(C)C)nc(C)nc21
- AC50 (Cytochrome P450 3A4): 25.1 µM (inconclusive)

SMILES: CCCc1nc(SCC(=O)Nc2nnc(SCC)s2)c2c(=O)n(C)c(=O)n(C)c2n1
- IC50 (HEK293 [9]): > 20 µM (inactive)
- IC50 (HEK293 [11]): 7.04 µM (active)
- IC50 (HEK293 [12]): 4.78 µM (active)
- EC50 (HEK293 [14]): > 20 µM (inactive)

SMILES: O=C1C2CC=CCC2C(=O)N1c1nc(CCc2ccccc2)n[nH]1 (stereo not drawn)
- IC50 [16]: > 100 µM (not active)

SMILES: CCC1=C2CC[C@H]3C(=O)NC(=O)[C@H]3[C@H]2[C@@]2(C)/C(=N/CC3CC3)OC(=O)N2C1=O
- AC50 (Cytochrome P450 3A4): 25.1 µM (inconclusive)

SMILES: O=C(CCc1ccc(O)cc1)c1c(O)cc(O)cc1O[C@H]1OC(CO)C(O)C(O)C1O (stereo partly drawn)
- AC50 (Cytochrome P450 3A4): 39.8 µM (inconclusive)

SMILES: Cc1ccc(CCCOC(=O)C[N+]2(C)CCCCC2)cc1
- IC50 [1]: 2.57 µM (active)
- IC50 [3]: 2.58 µM (active)

SMILES: CC(C)C[C@H](NC(=O)c1[nH]cnc1C(=O)NC1CCN(C(=O)OC(C)(C)C)CC1)C(=O)OCc1ccccc1
- EC50 (Streptokinase A): > 150 µM (not active)
- EC50 (Streptococcus): 12.3 µM (active)
- EC50 [17]: 8.37 µM (active)
- IC50 (Fatty acid synthase [18]): 6.28 µM (active)
- IC50 (Fatty acid synthase [19]): 8.64 µM (active)
- CC50 [20]: > 40 µM (active)
- IC50 [21]: 4.9 µM (not active)

SMILES: c1ccc2c(Cc3c[nH]c4ccccc34)c[nH]c2c1 [ARUNDINE]
- AC50 (Cytochrome P450 3A4): 39.8 µM (inconclusive)

SMILES: O=[N+]([O-])c1ccc(C[n+]2cccc3ccccc32)cc1
- IC50 [1]: 3.26 µM (active)
- IC50 [3]: 5.45 µM (active)

SMILES: CCOc1ccc(NC(=O)c2cc3ccccc3cc2O)cc1
- IC50 [1]: 12.9 µM (active)
- IC50 [3]: 47.5 µM (active)

SMILES: O=C(O)C1CC=CCC1C(=O)Nc1ccccc1Cl (stereo not drawn)
- IC50 (Leucine aminopeptidase): 12 µM (active)

SMILES: O=C(O)CS(=O)(=O)c1ccc2ccccc2c1
- IC50 [16]: > 100 µM (not active)

SMILES: CC(C)(C)NC(=O)C(=O)NN=C1CCCCCCC1
- IC50 [4]: 50 µM (inactive)

SMILES: Cc1nnc(SCC(=O)Nc2ccc(O)c(C(=O)O)c2)s1
- IC50 [16]: > 100 µM (not active)

SMILES: COc1cc(NC2c3ccccc3C(=O)N2Cc2ccccc2)cc(OC)c1OC (stereo not drawn)
- AC50 [5]: 9.63 µM (active)
- AC50 [6]: 13.1 µM (active)
- AC50 [7]: 7.97 µM (active)
- AC50 [8]: 8.41 µM (active)

SMILES: COC(=O)CC[C@@H](C)[C@H]1CC[C@H]2[C@@H]3[C@H](O)C[C@@H]4C[C@H](O)CC[C@]4(C)[C@H]3C[C@H](O)[C@]12C [CHOLIC ACID, METHYL ESTER]
- AC50 (Cytochrome P450 3A4): 31.6 µM (inconclusive)

SMILES: CCn1cc(C(=O)OCC(=O)c2cc(C)n(-c3ccc(OC(F)F)cc3)c2C)c(=O)c2ccc(C)nc21
- IC50 [4]: > 64 µM (inactive)

SMILES: O=C(O)/C=C/C(=O)Nc1ccccc1C(=O)OCC(=O)c1ccc2c(c1)OCCO2
- IC50 (Leucine aminopeptidase): 36.9 µM (active)

SMILES: Oc1nc2ccccc2n1C1CCN(C(c2ccccc2OC(F)(F)F)c2nnnn2Cc2ccccc2)CC1 (stereo not drawn)
- AC50 [22]: 20.5 µM (active)
- AC50 [23]: 22.9 µM (active)
- AC50 [24]: 17.6 µM (active)
- AC50 [25]: 18.9 µM (active)
